# pIC50: −log10 of the molar value.
# Target: Complement factor D (Homo sapiens, UniProt P00746)
# Assay: Factor D Assay: Human factor D (purified from human serum, Complement Technology, Inc.) at 80 nM final concentration is incubated with test compound at various concentrations for 5 minutes at room temperature in 50 mM Tris, 1M NaCl, pH 7.5. A synthetic substrate Z-L-Lys-SBzl and DTNB (Ellman's reagent) are added to final concentrations of 100 μM each. The increase in color is recorded at OD405 nm in a microplate in kinetic mode over 30 minutes with 30 second time points in a spectrofluorimeter. IC50 values are calculated by non-linear regression from the percentage of inhibition of complement factor D activity as a function of test compound concentration.
# Sequence of Complement factor D (P00746 whole entry): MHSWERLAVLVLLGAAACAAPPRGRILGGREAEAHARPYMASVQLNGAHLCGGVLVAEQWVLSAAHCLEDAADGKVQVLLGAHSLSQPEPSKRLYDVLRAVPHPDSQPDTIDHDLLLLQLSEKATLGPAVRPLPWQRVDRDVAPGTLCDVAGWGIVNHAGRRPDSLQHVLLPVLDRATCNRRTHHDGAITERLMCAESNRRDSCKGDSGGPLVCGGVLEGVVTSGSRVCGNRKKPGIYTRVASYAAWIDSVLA
row,Compound,pIC50
1,CC(=O)c1cn(CC(=O)N2C[C@H](F)C[C@H]2C(=O)Nc2cccc(Br)n2)c2ccc(-c3ccc(C)nn3)cc12,> 6.00
2,NC(=O)c1nn(CC(=O)N2C[C@H](F)C[C@H]2C(=O)Nc2cccc(Cl)n2)c2ccc(-c3ccnnc3)cc12,> 6.00
3,CC(=O)c1cn(CC(=O)N2C[C@H](F)C[C@H]2C(=O)Nc2cccc(Cl)n2)c2ccc(-c3ccnnc3)cc12,> 6.00

# — ChEMBL document CHEMBL5726559, “Aryl, heteroaryl, and heterocyclic compounds for treatment of complement mediated disorders” (2017)
